Data taken from publication PMC8674134, “Safety and efficacy of avapritinib in advanced systemic mastocytosis: the phase 1 EXPLORER trial” (Nature Medicine, 2021).
“Also recorded” adds a separate entry of the source. Read-outs that look alike come from different tables or passages of the source.

Experiments:
[1] = Plasma pharmacokinetics, non-compartmental analysis; assay type: in vivo, human
Protocol: On D1 and D15 of C1, blood samples for PK analysis were collected before the dose, and 0.5, 1, 2, 4, 8 and 24 h (C1D1 only) after the dose. C2D1 pre-dose concentration was used as the C1D15 24-h concentration for PK analysis. Additional pre-dose samples were collected on D1 of C3 and C4. Avapritinib PK parameters were obtained by non-compartmental analysis of the plasma concentration data versus nominal time using Phoenix WinNonlin© (version 8.0, Certara).
Plasma concentration–time profiles across dose levels and dose versus systemic exposure (Cmax and AUC) relationships were assessed graphically. Systemic exposure parameters of interest included the arithmetic and geometric mean, Cmax and AUC, and 90% CIs.

AdvSM symptom burden = test: Patient-reported outcomes: AdvSM-SAF total symptom score; assay type: in vivo, human; settings: C11; P = 0.002, n = 20; baseline 19.1 points (n = 40)
Description: The AdvSM-SAF comprises a ten-item questionnaire completed by the patient daily, specifically designed to assess symptoms related to AdvSM and measure the impact of treatments on patient symptom improvement. […] The AdvSM-SAF assesses the severity of eight symptoms of AdvSM, including abdominal pain, nausea, vomiting, diarrhea, spots, itching, flushing and fatigue over a 24-h period on a numerical rating scale, and also measures the frequency of vomiting and diarrhea by asking patients to enter a discrete numerical value. Data were analyzed at the item level, domain level and total score level. Domain level analyses are: • Gastrointestinal symptoms score (abdominal pain, nausea, vomiting and diarrhea severity (range 0–40)) • Skin symptom score (spots, itching and flushing severity (range 0–30))
The TSS was achieved by summing all eight severity items (range 0–80).

[2] = test system: patients with AdvSM and other myeloid malignancies; test: Safety: adverse events graded by NCI CTCAE v4.03, phase 1 EXPLORER trial; assay type: in vivo
Description: (§1) The safety population included all enrolled patients and was used to report AEs and PROs (in those who completed the questionnaire). The dose-determining population included all patients in a cohort in part 1 who received ≥21 prescribed avapritinib doses in C1 and completed follow-up through C1, or experienced DLT. The determination of the MTD and RP2D were based on the dose-determining population. […] The AdvSM safety population was also used to report AEs and OS. […] The response-evaluable population was used to report adjudicated response rates and PFS. The PK population comprised all patients with sufficient plasma concentration–time data to reliably estimate the PK parameters of avapritinib.
Safety assessments included determination of ECOG performance status, clinical laboratory testing, vital signs, electrocardiograms, brain imaging (MRI or CT scan) and physical examinations. AEs were graded according to National Cancer Institute Common Terminology Criteria (v4.03)[40]. Treatment-emergent AEs were defined as any AE occurring between the first dose of avapritinib through 30 d after the last dose of avapritinib, any event that was considered related to the study drug regardless of the start date of the event, or any event that was present at baseline but worsened intensity or was subsequently considered related to the study drug by the investigator.

KIT D816V = test system: KIT D816V; parameters: method as in PMID 29093181; settings: immunoblot in a xenograft model; cited from earlier work
[3] = test system: KIT D816V variant allele fraction; test: KIT D816V variant allele fraction in BM by central ddPCR; assay type: in vivo, human; settings: for Complete elimination of measurable KIT D816V VAF, patients: post hoc
Protocol: Other secondary endpoints included PK, DOR and changes in measures of mast cell burden (percentage of BM mast cells, serum tryptase concentration, KIT D816V VAF by ddPCR (detection limit 0.17%), and spleen and liver volumes). PROs were measured by daily completion of AdvSM-SAF (described below) for patients in part 2 as a secondary outcome[37]–[39]. Exploratory endpoints included time to response, PFS and OS.
Responses were assessed according to the protocol schedule. Spleen size was assessed by palpation and by imaging with calculation of volume centrally. KIT D816V VAF in the BM (or in blood if unavailable) was centrally measured using a validated ddPCR assay with a lower limit of detection of 0.17% (Bio-Rad). Other somatic mutations in BM were centrally assayed at baseline by next-generation sequencing.

[4] = test system: patients with AdvSM and other myeloid malignancies; test: 3 + 3 dose escalation: MTD, DLT and RP2D; assay type: in vivo
Protocol: This phase 1, open-label study comprised a dose-escalation phase (part 1) and a dose-expansion phase (part 2; Fig. 1). During dose escalation, patients received oral avapritinib at starting doses ranging from 30 to 400 mg QD in continuous 28-d treatment cycles. Dose escalation followed a 3 + 3 design (described below) until the MTD or RP2D was determined. During part 1, intra-patient dose escalation to assess dose levels not exceeding the MTD was allowed. Dose expansion was initially conducted at a starting dose of 300 mg QD; a second expansion cohort at 200 mg QD was subsequently introduced via protocol amendment. Dosing continued until patients experienced unacceptable toxicity, disease progression, death or withdrew consent.
The 3 + 3 dose-escalation design used cohorts of three to six patients. The first cohort received avapritinib at a starting dose of 30 mg daily. […] Three patients were enrolled initially in each cohort with an additional accrual of three patients if the cohort required expansion due to DLT. Once the escalation cohort was full, up to three additional patients (diagnosis of AdvSM only) could be enrolled into an enrichment cohort at a lower dose. Data from these patients were intended for further exploration of PK, pharmacodynamics and safety in patients with AdvSM.
as §1

## Cn1cc(-c2cc3c(N4CCN(c5ncc([C@@](C)(N)c6ccc(F)cc6)cn5)CC4)ncnn3c2)cn1 [avapritinib]
[1]; QD dosing
  Time at which steady state was reached: ≤ 15 days
[1]; human, plasma, oral, Cycle 1 Day 15, read-out: Steady state t½
  half-life: > 1200 min
[1]; human, plasma, oral, range across doses, read-out: Mean plasma elimination half-life
  half-life: 1190 to 2300 min
[1]; human, plasma, oral, 200 mg QD, C1 D15, CV 54.2%, n = 16, read-out: Steady-state geometric mean AUC0-τ
  AUC: 7340 ng·h/mL
[1]; human, plasma, oral, 200 mg QD, C1 D15, CV 62.2%, n = 18, read-out: Steady-state geometric mean maximum plasma concentration (Cmax)
  Cmax: 433 ng/mL
[1]; human, plasma, single oral doses of 30 to 400 mg, read-out: Time to maximum plasma concentration (Tmax)
  Tmax: 2 to 4 h
AdvSM symptom burden
  Mean change from baseline AdvSM-SAF TSS: −10.9 points
[2]; human, in vivo
  Arthralgia AE, patients: 3%
  Cognitive effects (memory impairment, cognitive disorder, confusional state and encephalopathy), patients: 30%
  Cognitive effects leading to treatment discontinuation, patients: 3%
  Discontinuation due to related AEs: 10%
  Discontinuation due to unrelated AEs: 9%
  Grade 1 skin hypopigmentation, patients: 3%
  Hair color changes, patients: 19%
  Hypokalemia AE, patients: 3%
  Intracranial bleeding (ICB) in the absence of prior severe thrombocytopenia (platelets <50 × 10^9/l), patients: 1%
  Intracranial bleeding (ICB), patients: 13%
  Intracranial bleeding: cerebral hemorrhage: 0 n (%)
  Median time to first dose reduction: 8 weeks
  Patients with at least one dose reduction due to AEs: 72%
  Peripheral edema AE, patients: 45%
[2]; in vivo
  Anaphylactic reaction: one
  ICB events associated with antecedent severe thrombocytopenia (platelet count <50 × 10^9/l): seven
  ICB events, asymptomatic (grade 1): Five
  ICB events, grade 2: two
  ICB events, grade 3: one
[2]; of nine patients with ICB, associated with head trauma
  ICB events, grade 5: one
[2]; one (ICB) considered treatment related
  Deaths due to AEs: six
KIT D816V
  In vivo IC90 for inhibition of KIT D816V in xenograft model: 189 ng/mL
[3]; patients with AdvSM, ddPCR
  Patients with KIT D816V VAF in BM reduced from baseline by ≥50%: 80%
[3]; patients with AdvSM, ddPCR limit of detection 0.17%
  Patients in whom KIT D816V VAF in BM became undetectable: 30%
[3]; best response CR (n = 8)
  Complete elimination of measurable KIT D816V VAF, patients: 63%
[3]; best response CRh (n = 8)
  Complete elimination of measurable KIT D816V VAF, patients: 50%
[3]; best response PR (n = 13)
  Complete elimination of measurable KIT D816V VAF, patients: 23%
[3]; clinical improvement (n = 2) or stable disease (n = 11)
  Complete elimination of measurable KIT D816V VAF, patients: 15%
[4]; doses of 30–400 mg once daily
  Maximum tolerated dose (MTD): No maximum tolerated dose (MTD) was determined; also recorded: not reached
[4]; human, in vivo, 28 d
  Recommended phase 2 dose (RP2D): 200 mg
  Recommended phase 2 dose (RP2D) initially selected for part 2: 300 mg QD
[4]; in vivo
  Patients with dose-limiting toxicity (DLT): one
